This note sets out measurements from patent publication US4812482A, “Application of α-[[(2-hydroxy-1, 1-dimethyl-ethyl) amine] methyl] benzene methanol hydrochloride (EL-508) as a drug with antiinflammatory action” (Especialidades Latinas Medicamentos Universales, S.A. …, priority 1987, dated 1989).

In one series the test system is croton oil oedema. Nature of the series: croton oil oedema, topical application. The class given is in vivo. To be noted: 6% aqueous or alcoholic solutions. From the text: (§1) Further, it is to be noted that the antiinflammatory activity of EL-508, after its topical application, in 6% aqueous or alcoholic solutions in acute experimental processes, is summarized in the following table in comparison to 6% benzidamine HC1 as a reference drug: […]

The test system of series [1] is vascular permeability (xylol). Nature of the series: vascular/capillary permeability, xylol-induced extravasation. The conditions noted are these: for reduction of extravasation induced by xylol: solution for topical application. The series is classed as in vivo. From the text:
(§2) In these tests Benzidamine HC1 lacked action.

Series [2] concerns ovoalbumin oedema. Description: ovoalbumin oedema, topical application. The class given is in vivo. The conditions noted are these: 6% aqueous or alcoholic solutions.
Text: as §1

Series [3] deals with carrageenin oedema. Nature of the series: carrageenin oedema, topical application. The class given is in vivo. To be noted: 6% aqueous or alcoholic solutions.
Text: as §1

In series [4] the test system is vascular permeability (chloroform). Nature of the series: vascular/capillary permeability, chloroform-induced extravasation. The class given is in vivo. The conditions noted are these: for reduction of extravasation induced by chloroform: solution for topical application.
Text: as §2

Another series concerns carrageenin peritonitis. Description: carrageenin-induced peritonitis, oral. The series is classed as in vivo. To be noted: 100 mg/Kg.
The test system of series [5] is kaolin oedema. Description: kaolin oedema, topical application. The series is classed as in vivo. To be noted: 6% aqueous or alcoholic solutions.
Text: as §1

A further series deals with formalin peritonitis. Description: formalin-induced peritonitis, oral. The series is classed as in vivo. To be noted: 100 mg/Kg.
Series [6] in a line: acute toxicity LD50, mouse. The conditions noted are these: in vivo.
The next series is described as follows: ulcerogenic action. To be noted: in vivo.
The test system of a further series is acute inflammation. Nature of the series: experiments of acute inflammation, oral and topical, summary. The class given is in vivo. From the text: In looking for a drug with intense topical antiinflammatory activity and good tolerance, the compound α-[[(2-hydroxy-1, 1-dimethyl-ethyl) amine]methyl]benzene methanol hydrochloride was syntheiszed and developed, and its chemical structure is completely different from that of conventional non-steroid anti-inflammatory drugs.

The test system of the next series is carrageenin abscess. Description: carrageenin abscess, oral route. The class given is in vivo. To be noted: rat, dose which produces 50% of oedema inhibition. From the text:
(§3) ED50 are indicated, these corresponding to the dose which produces 50% of oedema inhibition.

The test system of the next series is formol oedema. Description: formol-induced acute oedema, oral route. The series is classed as in vivo. To be noted: rat, dose which produces 50% of oedema inhibition.
Text: as §3

The next series is described as follows: acute toxicity LD50, rat. The conditions noted are these: in vivo.
The subject of series [7] is vaginitis of unknown ethiology or atrophic vaginitis and specific infectious vaginitis. Description: clinical trials in vaginitis, vaginal solutions. To be noted: vaginal solutions at 5% and 0,2%. The class given is in vivo, human. As to the method:
Further, as to the pharmaceutical forms of solutions for vaginal applications at 5% and 0,2% various clinical trials were performed in patients with vaginitis of unknown ethiology or atrophic vaginitis and specific infectious vaginitis.

A further series has as its system peripheral blood flow. Nature of the series: peripheral blood flow. The conditions noted are these: in vivo.
The test system of another series is adrenalectomized rats. Nature of the series: antiinflammatory effect in adrenalectomized rats. The series is classed as in vivo.
The next series deals with rats. Nature of the series: chronic toxicity over six months, rats. The conditions noted are these: p.o., up to 100 mg/kg/day. The class given is in vivo.
Series [8] concerns ovoalbumin oedema. Nature of the series: ovoalbumin-induced acute oedema, oral route. The class given is in vivo. To be noted: rat, dose which produces 50% of oedema inhibition.
Text: as §3

Series [9] concerns chronic inflammatory processes. Nature of the series: experimental chronic inflammatory processes. The series is classed as in vivo.
Series [10] deals with carrageenin oedema. Nature of the series: carrageenin-induced acute oedema, oral route. The series is classed as in vivo. To be noted: rat, dose which produces 50% of oedema inhibition.
Text: as §3

For series [11], the system named is skin, conjunctive and vaginal mucous membranes. Nature of the series: topical tolerance of the aqueous solution after repeated applications. The class given is in vivo.
A short description of series [12]: acute and chronic toxicity and tolerance, summary. To be noted: in vivo.
The next series deals with inflammatory processes. Nature of the series: therapeutic index in the different experimental models. The series is classed as in vivo. The conditions noted are these: vs reference compounds.
Series [13] relates to skin, genital and conjunctival mucous membranes. Description: topical tolerance in human volunteers. The class given is in vivo. To be noted: solution.
Series [14] has the same test system. Further details: species or system animals. The conditions noted are these: in vivo.
For series [15], the system named is muscular-ligamentous pathological processes: luxations, sprains, contusions. Description: clinical trial in muscular-ligamentous pathological processes, 6% aerosol. The class given is in vivo, human. From the text:
Several clinical trials have been carried out with different pharmaceutical compositions with α-[[(2-hydroxy-1, 1-dimethyl-ethyl) amine]methyl]benzene methanol hydrocholride (EL-508) as active principle. In the 6% aerosol pharmaceutical composition the therapeutic action was studied in muscular-ligamentous pathological processes: luxations, sprains, contusions and the like.

Series [16] concerns kaolin oedema. Description: kaolin-induced acute oedema, oral route. To be noted: rat, dose which produces 50% of oedema inhibition. The class given is in vivo.
Text: as §3

The test system of the next series is dogs. Nature of the series: chronic toxicity over six months, dogs. The class given is in vivo. To be noted: p.o., up to 100 mg/kg/day.

SMILES strings stand for the structures. Structures can show the parent of a compound that is named as a salt. Where two headings read alike, the source gives them in different places.

As to `CN(C)CCCOc1nn(Cc2ccccc2)c2ccccc12` [Benzidamine HCl, reference compound], in the series on croton oil oedema, the “Inhibition % of oedemas, Croton oil” value is 44%. Moreover, in [1], the “reduction of extravasation induced by xylol” value is recorded as “lacked action”. In addition, the “Inhibition % of oedemas, ovoalbumin” value with ovoalbumin oedema [2] is 42,0%. For the same compound, in the series on carrageenin oedema [3], the “Inhibition % of oedemas, carrageenin” value amounted to 7%. In addition, the “reduction of extravasation induced by chloroform” value in series [4] is listed as “lacked action”. The “percentage of inhibition, Carrageenin perit.” value in the series with carrageenin peritonitis was 31,3%. In addition, in the series with kaolin oedema [5], the “Inhibition % of oedemas, Kaolin” value is given as 0%. Further, the “percentage of inhibition, Formalin perit.” value with formalin peritonitis is 15,6%.
Consider `CC(C)(CO)NCC(O)c1ccccc1` (stereo not drawn) [EL-508, α-[[(2-hydroxy-1,1-dimethyl-ethyl)amine]methyl]benzene methanol hydrochloride], for which the LD50 was 295 mg/kg in [6] (ip); 79 mg/kg in series [6] (iv); 1020 mg/kg in [6] (po); 350 mg/kg in “acute toxicity LD50, rat” (ip); 80 mg/kg in the series “acute toxicity LD50, rat” (iv); 2080 mg/kg in “acute toxicity LD50, rat” (po). In addition, the ulcerogenic action entry in “ulcerogenic action” is listed as “slight ulcerogenic action”. Besides, the antiinflammatory activity entry in the series with acute inflammation (oral and topical route, acute inflammation) is “great antiinflammatory activity”. Also, the “antiinflammatory effect compared with reference products” value in the series on acute inflammation (vs fenylbutazone, pyridil-3-methylamine salicilate, benzidamine salicilate, etc.) is on record as “higher than the referenced products used”. Moreover, the “Inhibition % of oedemas, Croton oil” value in the series with croton oil oedema came to 30%. The “activity against capillary permeability increases induced by xylol” value in [1] (all the administration routes) is on record as “highly active”. Also, the “reduction of extravasation induced by xylol” value in [1] is recorded as 50%. Besides, the ED50 with carrageenin abscess was 9.4 mg/kg; in the series with formol oedema, 21.7 mg/kg; with ovoalbumin oedema [8], 16.7 mg/kg; in the series with carrageenin oedema [10] it was 29.8 mg/kg; in the series with kaolin oedema [16] it was 44.9 mg/kg. Moreover, the “Inhibition % of oedemas, ovoalbumin” value with ovoalbumin oedema [2] is on record as 40,6%. Also, the efficacy in vaginitis entry in series [7] was “more efficent in these indications than iodic povidone and placebo”. The “effect on peripheral blood flow” value in the series with peripheral blood flow was “did not modify at all peripheral blood flow”. In the series with adrenalectomized rats, the antiinflammatory effect result is listed as “antiinflammatory effect is direct, without central or hormaonal stimulus”. In the series on carrageenin oedema [3], the “Inhibition % of oedemas, carrageenin” value came to 48%. In series [4] (all the administration routes), the “activity against capillary permeability increases induced by chloroform” value is “highly active”. Besides, the “reduction of extravasation induced by chloroform” value in [4] is listed as 50%. Besides, the “undesirable effects in chronic toxicity study” value in the series with rats and in the series on dogs was “no undesirable effects attributable to the product” each time. The “activity on primary inflammatory phenomena” value in series [9] is listed as “demonstrated its activity on primary inflammatory phenomena”. The “percentage of inhibition, Carrageenin perit.” value with carrageenin peritonitis is reported as 70,8%. Also, in the series on carrageenin peritonitis (equal doses), the “activity on carrageenin peritonitis compared with reference drugs” value is on record as “more active than the reference drugs”. Besides, the “Inhibition % of oedemas, Kaolin” value with kaolin oedema [5] is reported as 47,5%. For the same compound, the topical tolerance result in [11] is “well tolerated”; in series [13] it was “perfectly tolerated”; in series [14] it was “perfectly tolerated”. For the same compound, in series [12], the “acute and chronic toxicity” value was “acute and chronic toxicity was very low”. In addition, the “systematic and topical tolerance” value in series [12] is “systematic and topical tolerance has been demonstrated”. Moreover, the undesirable side effects result in [12] is given as “no undesirable side effects”. The therapeutic indices result in the series on inflammatory processes is recorded as “considerably higher than for the reference compounds”. Further, in [15], the therapeutic action result is “therapeutic action higher than pyiridil-3-methyl amine salicylate and placebo”. Also, the “percentage of inhibition, Formalin perit.” value with formalin peritonitis is on record as 28,1%. In the series on formalin peritonitis (equal doses), the “activity on formalin-induced peritonitis compared with reference drugs” value was “more active than the reference drugs”.
Consider `CCCCC1C(=O)N(c2ccccc2)N(c2ccccc2)C1=O` [Fenilbutazone, reference compound], for which the results for the ED50 in the series on carrageenin abscess and with carrageenin oedema [10] were 80 mg/kg and 200 mg/kg, respectively. Moreover, in the series with ovoalbumin oedema [8], the “ED50 Ovoalbumin” value was “Inactive”.
With `CCCCC1C(=O)N(c2ccccc2)N(c2ccc(O)cc2)C1=O` (centres unmarked) [Oxyphenylbutazone, reference compound], in the series with carrageenin peritonitis, the “percentage of inhibition, Carrageenin perit.” value is 58,8%. The “percentage of inhibition, Formalin perit.” value in the series on formalin peritonitis is 7,5%.
